{
  "source": "ChEMBL document CHEMBL1240320",
  "about": "“Antibacterial lysine analogs that target lysine riboswitches” (Nat Chem Biol, 2007)",
  "key": {"Nucleic Acid [1]": {"tested_on": "Nucleic Acid", "experiment": "Binding affinity to Bacillus subtilis 168 1A1 lysine riboswitch 179 lysc by in-line probing assay", "format": "nucleic-acid assay"}, "Bacillus subtilis [2]": {"tested_on": "Bacillus subtilis", "experiment": "Antibacterial activity against Bacillus subtilis 168 1A1 after 24 hrs by CLSI method", "format": "functional"}, "Bacillus subtilis [3]": {"tested_on": "Bacillus subtilis", "experiment": "Antibacterial activity against wild type Bacillus subtilis 168 1A1 assessed as inhibition of viable spore formation at 2 mM after 22 to 24 hrs", "format": "functional, subsp. subtilis str. 168 1A1"}, "Bacillus subtilis [4]": {"tested_on": "Bacillus subtilis", "experiment": "Antibacterial activity against Bacillus subtilis 168 1A1 at 100 uM after 24 hrs by CLSI method", "format": "functional, organism-based", "conditions": "subsp. subtilis str. 168 1A1"}, "Bacillus subtilis [5]": {"tested_on": "Bacillus subtilis", "experiment": "Antibacterial activity against Bacillus subtilis 1A40 at 1 mM after 3 hrs by CLSI method", "format": "functional, organism-based"}, "Bacillus subtilis [6]": {"tested_on": "Bacillus subtilis", "experiment": "Antibacterial activity against wild type Bacillus subtilis 168 1A1 assessed as inhibition of viable spore formation at 0.2 mM after 22 to 24 hrs", "format": "functional, subsp. subtilis str. 168 1A1"}, "Bacillus subtilis [7]": {"tested_on": "Bacillus subtilis", "experiment": "Antibacterial activity against Bacillus subtilis 168 M1 harboring G163A mutation in P4 motif after 24 hrs by CLSI method", "format": "functional"}, "Bacillus subtilis [8]": {"tested_on": "Bacillus subtilis", "experiment": "Antibacterial activity against Bacillus subtilis 168 M2 harboring adenosine deletion within 95 to 97 sequence in loop E of P2 motif after 24 hrs by CLSI method", "format": "functional"}, "Nucleic Acid [9]": {"molecular_target": "Nucleic Acid", "experiment": "Binding affinity to Bacillus subtilis 168 1A1 lysine riboswitch 179 lysc", "format": "nucleic-acid assay, Bacillus subtilis subsp. subtilis str. 168"}, "Nucleic Acid [10]": {"molecular_target": "Nucleic Acid", "experiment": "Binding affinity to lysine riboswitch 179 lysc of Bacillus subtilis 168 M1 harboring G163A mutation in P4 motif", "format": "nucleic-acid assay, Bacillus subtilis subsp. subtilis str. 168"}, "Nucleic Acid [11]": {"molecular_target": "Nucleic Acid", "experiment": "Binding affinity to lysine riboswitch 179 lysc of Bacillus subtilis 168 M2 harboring adenosine deletion within 95 to 97 sequence in loop E of P2 motif", "format": "nucleic-acid assay, Bacillus subtilis subsp. subtilis str. 168"}, "Bacillus subtilis [12]": {"tested_on": "Bacillus subtilis", "experiment": "Antibacterial activity against L-4-oxalysine-resistant Bacillus subtilis 168 M2 assessed as inhibition of viable spore formation at 2 mM after 22 to 24 hrs", "format": "functional, subsp. subtilis str. 168 M2"}, "[13]": {"conditions": "subsp. subtilis str. 168 1A1, 24 h"}, "[14]": {"conditions": "subsp. subtilis str. 168 M1, 24 h"}, "[15]": {"conditions": "subsp. subtilis str. 168 M2, 24 h"}},
  "note": "Calls of active or inactive are those of the source. The rule behind the calls is not given here.",
  "data": [
    {"smiles": "NCCSC[C@H](N)C(=O)O", "values": [
      {"measurement": "Activity", "setting": "Nucleic Acid [1]; subsp. subtilis str. 168 1A1", "result": "Active"}
    ]},
    {"smiles": "Nc1ccccc1C(=O)C[C@H](N)C(=O)O", "note": "[L-KYNURENINE]", "values": [
      {"measurement": "Kd", "setting": "Nucleic Acid [1]", "result": "> 1000", "unit": "µM"},
      {"measurement": "MIC", "setting": "Bacillus subtilis [2]; [13]", "result": "> 5", "unit": "mM"}
    ]},
    {"smiles": "Nc1cc(C[C@H](N)C(=O)O)ccc1O", "values": [
      {"measurement": "Kd", "setting": "Nucleic Acid [1]", "result": "> 1000", "unit": "µM"},
      {"measurement": "MIC", "setting": "Bacillus subtilis [2]; [13]", "result": "> 5", "unit": "mM"},
      {"measurement": "Activity", "setting": "Bacillus subtilis [3]", "result": 75, "unit": "%"}
    ]},
    {"smiles": "CC(=N)NCCCC[C@H](N)C(=O)O", "note": "[L-NIL]", "values": [
      {"measurement": "Kd", "setting": "Nucleic Acid [1]", "result": 11, "unit": "µM"},
      {"measurement": "Activity", "setting": "Bacillus subtilis [4]", "result": "inactive"},
      {"measurement": "MIC", "setting": "Bacillus subtilis [2]; [13]", "result": "> 5", "unit": "mM"}
    ]},
    {"smiles": "NCCOC[C@H](N)C(=O)O", "values": [
      {"measurement": "Kd", "setting": "Nucleic Acid [1]", "result": 13, "unit": "µM"},
      {"measurement": "Activity", "setting": "Bacillus subtilis [4]", "result": "Active"},
      {"measurement": "Activity", "setting": "Bacillus subtilis [5]", "result": "Active"},
      {"measurement": "Activity", "setting": "Bacillus subtilis [6]", "result": 71, "unit": "%"},
      {"measurement": "MIC", "setting": "Bacillus subtilis [7]; [14]", "result": 1.56, "unit": "mM"},
      {"measurement": "MIC", "setting": "Bacillus subtilis [8]; [15]", "result": 1.56, "unit": "mM"},
      {"measurement": "Kd", "setting": "Nucleic Acid [9]", "result": 26, "unit": "µM"},
      {"measurement": "Kd", "setting": "Nucleic Acid [10]", "result": 29, "unit": "µM"},
      {"measurement": "Kd", "setting": "Nucleic Acid [11]", "result": 75, "unit": "µM"},
      {"measurement": "MIC", "setting": "Bacillus subtilis [2]; [13]", "result": 0.173, "unit": "mM"},
      {"measurement": "Activity", "setting": "Bacillus subtilis [3]", "result": 6, "unit": "%"},
      {"measurement": "Activity", "setting": "Bacillus subtilis [12]", "result": 65, "unit": "%"}
    ]},
    {"smiles": "NCC(=O)CCC(N)C(=O)O", "note": "(racemic)", "values": [
      {"measurement": "Kd", "setting": "Nucleic Acid [1]", "result": "> 1000", "unit": "µM"},
      {"measurement": "MIC", "setting": "Bacillus subtilis [2]; [13]", "result": "> 5", "unit": "mM"},
      {"measurement": "Activity", "setting": "Bacillus subtilis [3]", "result": 47, "unit": "%"},
      {"measurement": "Activity", "setting": "Bacillus subtilis [12]", "result": 9, "unit": "%"}
    ]},
    {"smiles": "CC(=O)NCCCC[C@H](N)C(=O)O", "values": [
      {"measurement": "Kd", "setting": "Nucleic Acid [1]", "result": "> 1000", "unit": "µM"},
      {"measurement": "MIC", "setting": "Bacillus subtilis [2]; [13]", "result": "> 5", "unit": "mM"}
    ]},
    {"smiles": "NCCCC[C@H](N)C(=O)O", "note": "[LYSINE]", "values": [
      {"measurement": "Kd", "setting": "Nucleic Acid [1]", "result": 0.36, "unit": "µM"},
      {"measurement": "Activity", "setting": "Bacillus subtilis [5]", "result": "inactive"},
      {"measurement": "MIC", "setting": "Bacillus subtilis [7]; subsp. subtilis str. 168 M1", "result": "inactive"},
      {"measurement": "MIC", "setting": "Bacillus subtilis [8]; subsp. subtilis str. 168 M2", "result": "inactive"},
      {"measurement": "Kd", "setting": "Nucleic Acid [9]", "result": 1.7, "unit": "µM"},
      {"measurement": "Kd", "setting": "Nucleic Acid [10]", "result": 3, "unit": "µM"},
      {"measurement": "Kd", "setting": "Nucleic Acid [11]", "result": 2.9, "unit": "µM"},
      {"measurement": "MIC", "setting": "Bacillus subtilis [2]; subsp. subtilis str. 168 1A1", "result": "inactive"}
    ]},
    {"smiles": "CC(=O)N[C@@H](CCCCN)C(=O)O", "values": [
      {"measurement": "Kd", "setting": "Nucleic Acid [1]", "result": "> 1000", "unit": "µM"},
      {"measurement": "MIC", "setting": "Bacillus subtilis [2]; [13]", "result": "> 5", "unit": "mM"}
    ]},
    {"smiles": "CN[C@@H](CCCCN)C(=O)O", "values": [
      {"measurement": "Kd", "setting": "Nucleic Acid [1]", "result": "> 1000", "unit": "µM"},
      {"measurement": "MIC", "setting": "Bacillus subtilis [2]; [13]", "result": "> 5", "unit": "mM"}
    ]},
    {"smiles": "N=C(N)NCCCC[C@H](N)C(=O)O", "values": [
      {"measurement": "Kd", "setting": "Nucleic Acid [1]", "result": 7, "unit": "µM"},
      {"measurement": "Activity", "setting": "Bacillus subtilis [5]", "result": "inactive"},
      {"measurement": "MIC", "setting": "Bacillus subtilis [2]; [13]", "result": "> 5", "unit": "mM"}
    ]},
    {"smiles": "NCCS(=O)(=O)C[C@H](N)C(=O)O", "values": [
      {"measurement": "Kd", "setting": "Nucleic Acid [1]", "result": 2.5, "unit": "µM"},
      {"measurement": "Activity", "setting": "Bacillus subtilis [4]", "result": "Active"},
      {"measurement": "Activity", "setting": "Bacillus subtilis [5]", "result": "Active"},
      {"measurement": "Activity", "setting": "Bacillus subtilis [6]", "result": 7, "unit": "%"},
      {"measurement": "MIC", "setting": "Bacillus subtilis [7]; [14]", "result": 1.56, "unit": "mM"},
      {"measurement": "MIC", "setting": "Bacillus subtilis [8]; [15]", "result": 3.44, "unit": "mM"},
      {"measurement": "Kd", "setting": "Nucleic Acid [9]", "result": 13, "unit": "µM"},
      {"measurement": "Kd", "setting": "Nucleic Acid [10]", "result": 14, "unit": "µM"},
      {"measurement": "Kd", "setting": "Nucleic Acid [11]", "result": 24, "unit": "µM"},
      {"measurement": "MIC", "setting": "Bacillus subtilis [2]; [13]", "result": 0.026, "unit": "mM"},
      {"measurement": "Activity", "setting": "Bacillus subtilis [3]", "result": 0, "unit": "%"},
      {"measurement": "Activity", "setting": "Bacillus subtilis [12]", "result": 17, "unit": "%"}
    ]},
    {"smiles": "NC/C=C/CC(N)C(=O)O", "note": "(racemic)", "values": [
      {"measurement": "Kd", "setting": "Nucleic Acid [1]", "result": 0.97, "unit": "µM"},
      {"measurement": "Activity", "setting": "Bacillus subtilis [4]", "result": "Active"},
      {"measurement": "Activity", "setting": "Bacillus subtilis [5]", "result": "Active"},
      {"measurement": "MIC", "setting": "Bacillus subtilis [7]; [14]", "result": "> 5", "unit": "mM"},
      {"measurement": "MIC", "setting": "Bacillus subtilis [8]; [15]", "result": "> 5", "unit": "mM"},
      {"measurement": "MIC", "setting": "Bacillus subtilis [2]; [13]", "result": 0.938, "unit": "mM"}
    ]},
    {"smiles": "C[N+](C)(C)CCCC[C@H](N)C(=O)O", "note": "[TRIMETHYLLYSINE]", "values": [
      {"measurement": "Kd", "setting": "Nucleic Acid [1]", "result": "> 1000", "unit": "µM"},
      {"measurement": "MIC", "setting": "Bacillus subtilis [2]; [13]", "result": "> 5", "unit": "mM"}
    ]}
  ]
}
